Laboratory results: US20110039762A1, “TARGETED ANTIMICROBIAL MOIETIES” (C3 JIAN, INC., priority 2009, published 2011)
“Also recorded” adds a separate entry of the source.

What follows are substances tested on microorganisms (e.g., bacteria, yeasts, fungi) (assay: Targeting peptide binding to target microorganisms (Table 3)). Settings: microorganism(s) the targeting peptide binds; binding in aqueous buffers depending on peptide solubility, preferably 1x PBS.

| Substance | Target(s) |
| --- | --- |
| PF-141 (VVRRFQGM; Peptide with targeting and/or antimicrobial activity) | S. epidermidis and M. luteus and C. albicans and MRSA and C. jeikeium |
| PF-142 (GIDRGCQAAR; Peptide with targeting and/or antimicrobial activity) | S. mutans |
| PF-146 (GCGKRRIITKSASRDTR; Peptide with targeting and/or antimicrobial activity) | S. epidermidis and M. luteus and P. aeruginosa and C. albicans and MRSA and C. jeikeium |
| PF-147 (RRPRRRRSGHGQSASAA; Peptide with targeting and/or antimicrobial activity) | S. epidermidis and M. luteus and MRSA |
| PF-150 (EIQAKGTG; Peptide with targeting and/or antimicrobial activity) | S. epidermidis and MRSA |
| PF-151 (EEYPARVPLSGEDVTEARRH; Peptide with targeting and/or antimicrobial activity) | S. epidermidis and MRSA and E. faecalis and C. jeikeium |
| PF-152 (VGYFIWKDSHSRKG; Peptide with targeting and/or antimicrobial activity) | S. epidermidis and C. albicans and MRSA and E. faecalis and C. jeikeium |
| PF-154 (GIKKSKHPSTDDYVVKTTIDSL; Peptide with targeting and/or antimicrobial activity) | S. mutans |
| PF-155 (GRYGDDSKERQGRAQ; Peptide with targeting and/or antimicrobial activity) | C. jeikeium |
| PF-158 (VRLESRPADLPE; Peptide with targeting and/or antimicrobial activity) | S. epidermidis |
| PF-159 (TMAFVEKAQLRVPVGDDLPV; Peptide with targeting and/or antimicrobial activity) | S. epidermidis |
| PF-160 (SFHASLTKNEKPIKSTG; Peptide with targeting and/or antimicrobial activity) | S. epidermidis |
| PF-161 (RGRALASTATTRPARRRR; Peptide with targeting and/or antimicrobial activity) | S. epidermidis; also recorded: M. luteus; also recorded: E. coli; also recorded: C. jejuni |
| PF-162 (GIRRLHSVENLNREISHRMAGLR; Peptide with targeting and/or antimicrobial activity) | S. epidermidis and MRSA |
| PF-163 (TSWLRAAERQEIGEPTKTFGEKTTSL; Peptide with targeting and/or antimicrobial activity) | S. epidermidis |
| PF-165 (GPVSVVASLRRGTTVQRHSQNNHNKGKP; Peptide with targeting and/or antimicrobial activity) | MRSA and C. jejuni |
| PF-166 (SKAVSRKRSI; Peptide with targeting and/or antimicrobial activity) | E. coli; also recorded: C. jeikeium |
| PF-169 (APGSAADSPRSRADD; Peptide with targeting and/or antimicrobial activity) | S. epidermidis; also recorded: E. coli; also recorded: C. albicans; also recorded: E. faecalis; also recorded: C. jeikeium |
| PF-172 (LTGVRRPWRAPWAGTSGWALR; Peptide with targeting and/or antimicrobial activity) | S. epidermidis and M. luteus and E. coli and P. aeruginosa and MRSA and E. faecalis and C. jejuni |

| Substance | Target(s) |
| --- | --- |
| PF-174 (RGGDSPARRRPGLAGPGGPG; Peptide with targeting and/or antimicrobial activity) | S. epidermidis; also recorded: P. aeruginosa; also recorded: C. jeikeium |
| PF-177 (VTSEPGIAHDIRLLPRAAAFR; Peptide with targeting and/or antimicrobial activity) | M. luteus and MRSA and E. faecalis and C. jeikeium |
| PF-181 (GIAPRRNEWGAVGGR; Peptide with targeting and/or antimicrobial activity) | S. epidermidis and M. luteus and E. coli and MRSA and E. faecalis and C. jeikeium |
| PF-182 (LPATRDKTRVPASVAGAP; Peptide with targeting and/or antimicrobial activity) | S. epidermidis; also recorded: M. luteus; also recorded: E. coli; also recorded: E. faecalis; also recorded: C. jeikeium |
| PF-183 (KPGISVENRQ; Peptide with targeting and/or antimicrobial activity) | S. epidermidis and M. luteus and E. coli and C. albicans and MRSA and E. faecalis and C. jeikeium |
| PF-184 (LIADRHIRA; Peptide with targeting and/or antimicrobial activity) | S. epidermidis and M. luteus and E. coli and P. aeruginosa and C. albicans and MRSA and C. jeikeium |
| PF-185 (RPAQARQGPGGLIADRHIRA; Peptide with targeting and/or antimicrobial activity) | E. coli; also recorded: P. aeruginosa |
| PF-187 (EIQKIAKGVSGQVYGPSRQITISKKR; Peptide with targeting and/or antimicrobial activity) | S. epidermidis and M. luteus and E. coli and MRSA |
| PF-189 (GNLTRSREAARATQ; Peptide with targeting and/or antimicrobial activity) | S. epidermidis and M. luteus and C. albicans and MRSA and E. faecalis and C. jejuni |
| PF-193 (PPHCPPGHAKKGWC; Peptide with targeting and/or antimicrobial activity) | S. epidermidis and M. luteus and E. coli and MRSA and E. faecalis and C. jejuni |
| PF-194 (MKGNKLATAHEQPVKNSAPPL; Peptide with targeting and/or antimicrobial activity) | C. jeikeium |
| PF-195 (EMAEGSADDRLRKTPRDC; Peptide with targeting and/or antimicrobial activity) | S. epidermidis; also recorded: M. luteus; also recorded: E. faecalis; also recorded: C. jeikeium |
| PF-197 (CNALLRRGHPPSAL; Peptide with targeting and/or antimicrobial activity) | S. epidermidis; also recorded: M. luteus; also recorded: C. albicans; also recorded: E. faecalis; also recorded: C. jejuni |
| PF-200 (GIELKSLIMAQIERWRQA; Peptide with targeting and/or antimicrobial activity) | S. epidermidis and M. luteus and MRSA and E. faecalis and C. jeikeium |
| PF-201 (GCRPASLSDADPDGR; Peptide with targeting and/or antimicrobial activity) | S. epidermidis; also recorded: M. luteus; also recorded: E. coli; also recorded: C. albicans; also recorded: E. faecalis; also recorded: C. jeikeium; also recorded: C. jejuni |
| PF-202 (ALNRASLRLALGE; Peptide with targeting and/or antimicrobial activity) | S. epidermidis and M. luteus and E. coli and MRSA and E. faecalis and C. jeikeium and C. jejuni |
| PF-206 (KLRSASKKSLQEKSCGIMPEKPAG; Peptide with targeting and/or antimicrobial activity) | M. luteus; also recorded: C. albicans; also recorded: C. jeikeium; also recorded: C. jejuni |
| PF-207 (AAGCRDLGSLSSLVTNPS; Peptide with targeting and/or antimicrobial activity) | M. luteus; also recorded: C. jeikeium |
